The compounds below were run against T1, Adenosine receptor A1 (Bos taurus, UniProt P28190) (assay: Binding affinity to bovine adenosine A1 receptor).
T1 sequence (P28190 whole entry): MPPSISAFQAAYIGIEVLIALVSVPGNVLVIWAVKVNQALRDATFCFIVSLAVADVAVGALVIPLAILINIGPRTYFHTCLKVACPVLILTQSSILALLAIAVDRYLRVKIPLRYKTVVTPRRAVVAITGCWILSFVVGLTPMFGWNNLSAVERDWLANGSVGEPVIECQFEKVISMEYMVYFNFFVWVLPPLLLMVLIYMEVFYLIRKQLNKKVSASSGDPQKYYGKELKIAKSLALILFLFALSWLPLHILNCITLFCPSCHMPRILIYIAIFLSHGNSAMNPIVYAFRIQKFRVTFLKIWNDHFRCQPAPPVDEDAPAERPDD
Compound OC1CCC(Nc2nc(-c3ccccc3)nc3c2nnn3Cc2ccccc2F)CC1 (stereo not drawn) has a Ki of 1.85 nM.
Compound COc1ccc(C(=O)Nc2nc(-c3ccccc3)nc3c2nnn3Cc2ccccc2)cc1 has a Ki of 3.24 nM.
For c1ccc(Cn2nnc3c(NC4CCCCC4)nc(-c4ccccc4)nc32)cc1, the Ki was 1.6 nM.
Work on COc1ccc(C(=O)Nc2nc(-c3ccccc3)nc3c2nnn3Cc2ccccc2Cl)cc1 yielded a Ki of 20 nM.
With OC1CCC(Nc2nc(-c3ccccc3)nc3c2nnn3Cc2ccccc2Cl)CC1 (stereo not drawn) the Ki was 3.1 nM.
OC1CCC(Nc2nc(-c3ccccc3)nc3c2nnn3Cc2ccccc2)CC1 (stereo not drawn) gave a Ki of 2.7 nM.
O[C@H]1CCCC[C@@H]1Nc1nc(-c2ccccc2)nc2c1nnn2Cc1ccccc1 was tested, and the Ki was 10.3 nM.
COc1ccc(C(=O)Nc2nc(-c3ccccc3)nc3c2nnn3Cc2ccccc2F)cc1 gave a Ki of 21.9 nM.

Source: ChEMBL document CHEMBL1157209, “QSAR study on a novel series of 8-azaadenine analogues proposed as A1 adenosine receptor antagonists” (Eur J Med Chem, 2008)
